Earlier results, collected in US11346820B2, “HPLC-PDA method and uses thereof in phytoestrogen measurement” (The Board Of Regents, The University of Texas System, priority 2019, dated 2022).
Like-named read-outs stand apart in the source and are kept apart here.

Settings: nonrepresentative subset of adults, N=199, Valentin-Blasini, et al.

Structure (SMILES)	means recovered [ng/mL]	means recovered (units converted) [µmol/L]
Oc1ccc([C@H]2COc3cc(O)ccc3C2)cc1 (racemic) [Equol]	36	0.148
O=c1c(-c2ccc(O)cc2)coc2cc(O)cc(O)c12 [Genistein]	129	0.477
